The text below walks through data of patent publication US20250034139A1, “AMINE COMPOUNDS HAVING ANTI-INFLAMMATORY, ANTIFUNGAL, ANTIPARASITIC, AND ANTICANCER ACTIVITY” (PHARMA CINQ, LLC, priority 2013, published 2025).

Structures are written as SMILES. In brackets after ≈: the same amount, converted by molar mass. Some results are limits rather than exact numbers.

One assay has as its system THP-1 cells. The assay can be described thus: Example C: compound screen, viable THP-1 cell count after 5 hours +/- LPS. Particulars: Compound (0.1 μM), No LPS. Type of assay: cell-based, Human. An excerpt:
Background: THP-1 is a human acute myeloid leukemia (AML) cell line that can be induced into a macrophage-like cell with vitamin-D3 (vit-D3). In the macrophage, LPS (lipopolysaccharide; endotoxin) stimulation of toll-like receptor 4 (TLR-4) leads to NF-κB activation and secretion of inflammatory cytokines but also the priming of programmed death pathways through RIP and Caspase 8. The balance of this complex regulatory network is dependent on highly specific kinases, enzymes that require ATP. Disruption of either cytosolic pH or ATP availability/energy level uncouples this control network and the can macrophage shift away from production of inflammatory cytokines towards a programmed death event, which has the net effect of limiting inflammatory damage.
Take `CCCCCCCCCCNc1ncnc2ccccc12` [Compound AH, N-(Decyl)quinazolin-4-amine]: the “Reduction in viable THP-1 cell count (percent change) from 0 hours, Mean ± SE” value is given as −9.66 ± 1.34%.

The same assay, now with this note: Compound (0.1 μM), Plus LPS.
For `CCCCCCCCCCNc1ncnc2ccccc12` [Compound AH, N-(Decyl)quinazolin-4-amine], the “Reduction in viable THP-1 cell count (percent change) from 0 hours, Mean ± SE” value is −26.55 ± 0.95%.

Still in this assay, the particulars now being: Compound (1.0 μM), No LPS.
Consider `CCCCCCCCCCNc1ncnc2ccccc12` [Compound AH, N-(Decyl)quinazolin-4-amine], for which the “Reduction in viable THP-1 cell count (percent change) from 0 hours, Mean ± SE” value is recorded as −7.87 ± 0.98%.

The same assay, now with this note: Compound (1.0 μM), Plus LPS.
In the case of `CCCCCCCCCCNc1ncnc2ccccc12` [Compound AH, N-(Decyl)quinazolin-4-amine], the “Reduction in viable THP-1 cell count (percent change) from 0 hours, Mean ± SE” value was −35.51 ± 3.90%.

The same assay, now with this note: LPS-treated THP-1 cells.
On to `CCCCCCCCCCNc1ncnc2ccccc12` [Compound AH, N-(Decyl)quinazolin-4-amine], for which the “ability to inactivate pro-inflammatory THP-1 cells, in words (relative to benchmark AC)” value is on record as “higher activity than the active benchmark compound AC”.

The next assay deals with THP-1 cells. The assay can be described thus: Example D: LPS-triggered THP-1 cell death assay, acute/5-hour and chronic/48-hour. The assay is classed as cell-based, Human. The settings on record: 10 ng/ml LPS, 0.1 μM test compound, 48 hours. The procedure: Compounds of the invention were tested at 0.1 μM versus AC in the LPS-triggered THP-1 cell death assay. Both acute/5-hour and chronic/48-hour phases of cell death were assessed. Compounds were screened in batches with DMSO as the negative control and AC as the high activity control.
On to `COc1ccc(OCCCCCCCCNc2ncnc3ccccc23)cc1` [AE, N-[8-(4-Methoxyphenoxy)octyl]quinazolin-4-amine], for which the “Viable cell percent change, Chronic/48-hour, Mean” value is 4.11%.

The same assay, now with this note: 0.1 μM, 5-hour and 48-hour time points.
On to `COc1ccc(OCCCCCCCCNc2ncnc3ccccc23)cc1` [AE, N-[8-(4-Methoxyphenoxy)octyl]quinazolin-4-amine], for which the “activity relative to AC in the LPS-triggered THP-1 cell death assay, in words” value is “equivalent activity to AC at both the 5-hour and 48-hour time points”.
As for `CCCCCCCCCCNc1ncnc2ccccc12` [Compound AH, N-(Decyl)quinazolin-4-amine], the “activity relative to AC in the LPS-triggered THP-1 cell death assay, in words” value is on record as “more active than AC at the chronic/48-hour time point”.

In a further assay the test system is Trichophyton rubrum. The assay can be described thus: Example J: Trichophyton rubrum growth inhibition, scoring by eye. Type of assay: cell-based. Particulars: Trichophyton rubrum, 144 h; 6 days at 30° C., tested 6 to 40 μM; read-out: MIC, μM (maximum inhibition concentration, scoring by eye). A digest of the protocol:
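Filtered T. rubrum suspension from PDA plates (grown 4 days, 30 °C) treated with diluted compounds in triplicate, incubated 6 days at 30 °C. Plates imaged; MIC scored by eye.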
Turning to `COc1ccc(OCCCCCCCCNc2ncnc3ccccc23)cc1` [AE, N-[8-(4-Methoxyphenoxy)octyl]quinazolin-4-amine], the MIC stood at 6 µM (≈ 2.28 µg/mL).
The same measure, in the same setting: the figure for `CCCCCCCCCCNc1ncnc2ccccc12` [Compound AH, N-(Decyl)quinazolin-4-amine] is 6 µM (≈ 1.71 µg/mL).

The test system of a further assay is Candida glabrata strains. The assay is described as follows: Example N: MIC and MFC (CLSI) against Candida glabrata. Type of assay: cell-based. The settings on record: Nakaseomyces glabratus, 24 h. The procedure:
(§1) The objective of this study was to determine the antifungal activity of eight experimental compounds against a representative panel of fungal isolates, including Candida albicans, C. glabrata, Cryptococcus neoformans, Trichophyton rubrum, Aspergillus fumigatus, and Rhizopus spp. Antifungal activity was measured by minimum inhibitory concentration (MIC) and minimum fungicidal concentration (MFC).
(§2) Three recent clinical strains of each species, taken from the culture collection at the Center for Medical Mycology, Case Western University, were tested.
(§3) Compounds in powder form were dissolved in DMSO. Serial dilutions of each compound were then prepared in RPMI-1640 in a range of […].
(§4) MIC testing was performed according to the CLSI M27-A3 and M38-A2 standards for the susceptibility testing of yeasts and filamentous fungi, respectively (1, 2). Test isolates were subcultured from frozen slants onto potato dextrose agar plates (Trichophyton rubrum was subcultured onto oatmeal plates for conidia production) and checked for purity. Inocula were then prepared in RPMI-1640 (YNB for Cryptococcus) to a concentration of 0.5-2.5×10^3 colony-forming units (CFU)/ml or 0.4-5×10^4 conidia/ml for yeast and filamentous fungi, respectively.
(§5) MFC determinations were performed according to the modifications previously described by Canton et al. and Ghannoum and Isham. (3, 4) Specifically, the total contents of each clear well from the MIC assay were subcultured onto potato dextrose agar. To avoid antifungal carryover, the aliquots were allowed to soak into the agar and then were streaked for isolation once dry, thus removing the cells from the drug source.
In turn, `COc1ccc(OCCCCCCCCNc2ncnc3ccccc23)cc1` [AE, N-[8-(4-Methoxyphenoxy)octyl]quinazolin-4-amine] showed an MIC50 of 4 µg/mL (≈ 10.5 µM).
For the compound `CCCCCCCCCCNc1ncnc2ccccc12` [Compound AH, N-(Decyl)quinazolin-4-amine], the MIC50 was 2 µg/mL (≈ 7.01 µM).

The assay is the same for the next values; noted with them: Nakaseomyces glabratus, 24 h, read-out: MIC 100%.
In the case of `COc1ccc(OCCCCCCCCNc2ncnc3ccccc23)cc1` [AE, N-[8-(4-Methoxyphenoxy)octyl]quinazolin-4-amine], the MIC is 4 µg/mL (≈ 10.5 µM).
As for `CCCCCCCCCCNc1ncnc2ccccc12` [Compound AH, N-(Decyl)quinazolin-4-amine], the MIC fell in the range of 4 to 8 µg/mL (≈ 14 to 28 µM).

The assay is the same for the next values; noted with them: Nakaseomyces glabratus, 48 h.
As for `COc1ccc(OCCCCCCCCNc2ncnc3ccccc23)cc1` [AE, N-[8-(4-Methoxyphenoxy)octyl]quinazolin-4-amine], the MIC50 lay in the range of 4 to 8 µg/mL (≈ 10.5 to 21.1 µM).
Compound `CCCCCCCCCCNc1ncnc2ccccc12` [Compound AH, N-(Decyl)quinazolin-4-amine] registered an MIC50 of 4 to 8 µg/mL (≈ 14 to 28 µM).

The assay is the same for the next values; noted with them: Nakaseomyces glabratus, 48 h, read-out: MIC 100%.
For `COc1ccc(OCCCCCCCCNc2ncnc3ccccc23)cc1` [AE, N-[8-(4-Methoxyphenoxy)octyl]quinazolin-4-amine], the MIC was in the range of 4 to 8 µg/mL (≈ 10.5 to 21.1 µM).
The same measure, in the same setting: under `CCCCCCCCCCNc1ncnc2ccccc12` [Compound AH, N-(Decyl)quinazolin-4-amine] stands 4 to 8 µg/mL (≈ 14 to 28 µM).

Staying with this assay, now noted: Nakaseomyces glabratus; range over Candida glabrata strains, in 48 hr.
As to `COc1ccc(OCCCCCCCCNc2ncnc3ccccc23)cc1` [AE, N-[8-(4-Methoxyphenoxy)octyl]quinazolin-4-amine], the MFC lay within 16 to 64 µg/mL (≈ 42.2 to 169 µM).
With `CCCCCCCCCCNc1ncnc2ccccc12` [Compound AH, N-(Decyl)quinazolin-4-amine], the MFC is 8 to 64 µg/mL (≈ 28 to 224 µM).

In another assay the test system is Cryptococcus neoformans strains. The assay is described as follows: Example N: MIC and MFC (CLSI) against Cryptococcus neoformans. Further details: MIC at 50% inhibition: unit not given here.
Conditions: not given
Type of assay: cell-based. The procedure: as §1, §2, §3, §4, §5
For `CCCCCCCCCCNc1ncnc2ccccc12` [Compound AH, N-(Decyl)quinazolin-4-amine], the “MIC at 50% inhibition” value was 0.004-2.

The assay is the same for the next values; noted with them: 3 isolates.
Consider `CCCCCCCCCCNc1ncnc2ccccc12` [Compound AH, N-(Decyl)quinazolin-4-amine], for which the “cidal activity (MFC within 4 dilutions of the MIC), in words” value is given as “cidal against all 3 neoformans isolates”.

Still in this assay, the particulars now being: Cryptococcus neoformans, read-out: MIC 100%, Range; incubated for 72 hrs, three clinical strains.
Consider `COc1ccc(OCCCCCCCCNc2ncnc3ccccc23)cc1` [AE, N-[8-(4-Methoxyphenoxy)octyl]quinazolin-4-amine], for which the MIC was 0.25 to 4 µg/mL (≈ 0.659 to 10.5 µM).
Consider `CCCCCCCCCCNc1ncnc2ccccc12` [Compound AH, N-(Decyl)quinazolin-4-amine], for which the MIC was in the range of 0.25 to 2 µg/mL (≈ 0.876 to 7.01 µM).

The same assay, now with this note: Cryptococcus neoformans; three clinical strains.
Turning to `COc1ccc(OCCCCCCCCNc2ncnc3ccccc23)cc1` [AE, N-[8-(4-Methoxyphenoxy)octyl]quinazolin-4-amine], the MFC fell in the range of 1 to 8 µg/mL (≈ 2.64 to 21.1 µM).
In turn, `CCCCCCCCCCNc1ncnc2ccccc12` [Compound AH, N-(Decyl)quinazolin-4-amine] came in with an MFC of 1 to 2 µg/mL (≈ 3.5 to 7.01 µM).

In a further assay the test system is Aspergillus fumigatus strains. The assay can be described thus: Example N: MIC and MFC (CLSI) against Aspergillus fumigatus. Type of assay: cell-based. Further details: MIC at 50% inhibition: unit not given here. Particulars: 24 hrs. The protocol: as §1, §2, §3, §4, §5
With `COc1ccc(OCCCCCCCCNc2ncnc3ccccc23)cc1` [AE, N-[8-(4-Methoxyphenoxy)octyl]quinazolin-4-amine], the “MIC at 50% inhibition” value was <0.12-0.5 and the “MIC at 100% inhibition” value is <0.12-1.

The same assay, now with this note: Aspergillus fumigatus, 24 h.
`COc1ccc(OCCCCCCCCNc2ncnc3ccccc23)cc1` [AE, N-[8-(4-Methoxyphenoxy)octyl]quinazolin-4-amine] had an MIC50 of 0.12 to 0.5 µg/mL (≈ 0.316 to 1.32 µM).
For the compound `CCCCCCCCCCNc1ncnc2ccccc12` [Compound AH, N-(Decyl)quinazolin-4-amine], the MIC50 was less than 0.12 µg/mL.

The same assay, now with this note: Aspergillus fumigatus, 24 h, read-out: MIC 100%.
For `COc1ccc(OCCCCCCCCNc2ncnc3ccccc23)cc1` [AE, N-[8-(4-Methoxyphenoxy)octyl]quinazolin-4-amine], the MIC lay in the range of 0.12 to 1 µg/mL (≈ 0.316 to 2.64 µM).
On to `CCCCCCCCCCNc1ncnc2ccccc12` [Compound AH, N-(Decyl)quinazolin-4-amine], for which the MIC fell in the range of 0.25 to 0.5 µg/mL (≈ 0.876 to 1.75 µM).

The same assay, now with this note: Aspergillus fumigatus, 48 h.
The compound `COc1ccc(OCCCCCCCCNc2ncnc3ccccc23)cc1` [AE, N-[8-(4-Methoxyphenoxy)octyl]quinazolin-4-amine] registered an MIC50 of 0.5 to 2 µg/mL (≈ 1.32 to 5.27 µM).
On to `CCCCCCCCCCNc1ncnc2ccccc12` [Compound AH, N-(Decyl)quinazolin-4-amine], for which the MIC50 is 0.25 to 1 µg/mL (≈ 0.876 to 3.5 µM).

Still in this assay, the particulars now being: Aspergillus fumigatus, 48 h, read-out: MIC 100%.
With `COc1ccc(OCCCCCCCCNc2ncnc3ccccc23)cc1` [AE, N-[8-(4-Methoxyphenoxy)octyl]quinazolin-4-amine], the MIC fell in the range of 1 to 4 µg/mL (≈ 2.64 to 10.5 µM).
For the compound `CCCCCCCCCCNc1ncnc2ccccc12` [Compound AH, N-(Decyl)quinazolin-4-amine], the MIC lay within 0.25 to 4 µg/mL (≈ 0.876 to 14 µM).

The assay is the same for the next values; noted with them: range over Aspergillus fumigatus strains, in 48 hr.
For `COc1ccc(OCCCCCCCCNc2ncnc3ccccc23)cc1` [AE, N-[8-(4-Methoxyphenoxy)octyl]quinazolin-4-amine], the MFC is more than 64 µg/mL.
`CCCCCCCCCCNc1ncnc2ccccc12` [Compound AH, N-(Decyl)quinazolin-4-amine] came in with an MFC of more than 64 µg/mL.

In general, MIC50 refers to the lowest concentration that inhibits either 50% of growth or 50% of the strains tested, depending on the study.
